{"source": "patent US6897237B2", "about": "“MMP-12 inhibitors” (Shionogi & Co. Ltd., priority 2000, dated 2005)", "key": {"MMP-9": {"target": "T1, MMP-9 (Homo sapiens, UniProt P14780)", "T1 construct": "endogenous in cells; host or cells: HT1080 human fibrosarcoma cells, TPA-stimulated; purified in house from conditioned medium", "T1 sequence (P14780 107-707 limits assumed)": "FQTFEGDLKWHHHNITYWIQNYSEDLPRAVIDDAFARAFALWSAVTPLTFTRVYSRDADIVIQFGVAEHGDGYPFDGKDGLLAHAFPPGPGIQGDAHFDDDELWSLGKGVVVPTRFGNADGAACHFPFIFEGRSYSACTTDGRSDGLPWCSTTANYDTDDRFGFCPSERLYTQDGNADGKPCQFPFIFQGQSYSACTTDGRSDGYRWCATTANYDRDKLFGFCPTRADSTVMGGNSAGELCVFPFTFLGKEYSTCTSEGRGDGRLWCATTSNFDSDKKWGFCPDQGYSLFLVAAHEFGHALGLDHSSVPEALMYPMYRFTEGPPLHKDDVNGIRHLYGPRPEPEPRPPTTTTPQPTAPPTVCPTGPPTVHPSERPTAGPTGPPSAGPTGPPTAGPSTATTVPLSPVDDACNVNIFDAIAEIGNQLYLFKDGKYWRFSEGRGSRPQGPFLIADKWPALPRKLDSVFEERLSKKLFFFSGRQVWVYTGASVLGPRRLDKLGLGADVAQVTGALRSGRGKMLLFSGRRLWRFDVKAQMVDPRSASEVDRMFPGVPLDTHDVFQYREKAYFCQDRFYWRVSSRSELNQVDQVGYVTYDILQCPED", "assay": "Assay for inhibitory activities on MMPs (fluorogenic peptide substrate): MMP-9", "format": "biochemical", "settings": "substrate MOCAc-Pro-Leu-Gly-Leu-A2Pr(DNP)-Ala-Arg-NH2", "source_text": "MMP-9 was isolated and purified by using a combination of procedures described in previous reports as follows. Yasunori Okada, Yukio Gonoji, Katsumi Naka, Katsuro Tomita, Isao Nakanishi, Kazushi Iwata, Kyoko Yamashita, and Taro Hayakawa: Matrix metalloproteinase 9 (92-kDa gelatinase/type IV collagenase) from HT1080 human fibrosarcoma cells. Purification and activation of the precursor and enzymic properties. J. Biol. Chem., 267 (1.992) 21712-21719. Yasunori Okada, Tatsuhisa Morodomi, Jan J, Enghild, Ko Suzuki, Atsushi Yasui, Isao Nakanishi, Guy Salvesen and Hideaki Nagase: Matrix metalloproteinase 2 from human rheumatoid synovial fibroblasts. Purification and activation of the precursor and enzymic properties. Eur. J. Biochem. 194 (1990) 721-730. Robin V Ward, Rosalind M Hembry, John J Reynolds and Gillian Murphy: The purification of tissue inhibitor of metalloproteinase-2 from its 72 kDa progelatinase complex. Biochem. J. 278 (1991) 179-187.\nBriefly, human fibrosarcoma ATCC HT1080 cell line was cultured to confluent in Dulbecco's Modified Medium (DMEM) containing 10% fetal-calf serum at 37° C. for 48 hours. Subsequently, the medium of confluent culture was changed to serum-free DMEM medium. To obtain MMP-9, Phorbol-12-myristate-13-acetate (TPA) must be added to this serum-free DMEM medium at a concentration of 50 ng/ml. The TPA treated medium was centrifuged at 3000 rpm for 15 min and the supernatant was concentrated to 450 ml by a Toyo-Roshi UP-20 apparatus with an ultrafiltration membrane. Then, proMMP-9 in this concentrated solution was purified by using columns of Gelatin-Sepharose and Concanavalin A-Sepharose. The pool containing proMMP-9 was dialyzed, concentrated (Toyo-Roshi UP-20) and applied to columns of Sephacryl S-200 and Green A matrix for the separation from TIMPs. The obtained proMMP-9 fraction was activated by TPCK-Trypsin (final conc. […] reaction mix.).\n(§1) The enzymatic activity on MMPs was analyzed by the method described in “C. Graham Knight, Frances Willenbrock and Gillian Murphy: A novel coumarin-labelled peptide for sensitive continuous assays of the matrix metalloproteinases: FEBS LETT., 296, (1992), 263-266”. The substrate: MOCAc-Pro-Leu-Gly-Leu-A2Pr(DNP)-Ala-Arg-NH2 was purchased from Peptide Institute, Inc., Osaka, Japan. The measurement of the inhibitory activities (IC50) was carried out by the following four methods;\n(§2) (A) Reaction with substrate, enzyme (MMPs) and inhibitor\n(§3) (B) Reaction with substrate and inhibitor, without enzyme\n(§4) (C) Reaction with substrate and enzyme (MMPs), without inhibitor\n(§5) (D) Reaction with substrate only\n(§6) IC50 values were calculated by using the following formula and each fluorescence values of above four methods (A to D).\n(§7) % inhibition={1−(A−B)/(C−D)}×100\n(§8) IC50 means the concentration required to inhibit 50% of the enzyme activity."}, "[1]": {"tested_on": "Sprague-Dawley male rats exposed to cigarette smoke", "assay": "Cigarette smoke exposure in rats, lung mechanics", "format": "in vivo, rat", "settings": "30 mg/kg p.o. twice daily", "procedure": "Sprague-Dawley male rats (390-430 g initial body weight) were exposed daily to smoke from commercial filtered cigarettes (30 cigarettes/rat/day, 5 days/week, for 7 to 8 weeks) with a smoke-generating and whole-body exposure system. The animals received 30 mg/kg p.o. twice daily of compound (B-6), which was suspended with 0.5% methyl cellulose. Vehicle animals received 2 ml/kg of 0.5% methyl cellulose. At 16-24 hr after the last exposure with cigarette smoke, anesthesia was induced with intraperitoneal injection of 40 mg/kg of pentobarbital sodium. Immediately after muscle relaxation with intravenous pancuronium bromide (0.3 mg/rat), animals were mechanically ventilated with a pressure-limited ventilator and were evaluated dynamic compliance. After exsanguination, the lung was attached to a glass syringe via a connector tube and continuously inflated through the airway to a transpulmonary pressure of 30 cmH2O, deflated them to a Ptp of 0 cmH2O, and aspirated them to a Ptp of −20 cmH2O. The change of Ptp and lung volume was monitored and recorded as the deflation pressure-volume (P-V) curve. Static lung compliance defined as the slope of steep portion of the deflation P-V curve was evaluated. Inspiratory capacity (IC) defined as the difference in lung volume between total lung capacity at a Ptp of 25 cmH2O and functional residual capacity at a Ptp of 0 cmH2O was evaluated.\nData are expressed as means ±S.D. Statistical analysis was performed with one-sided Student's t-test. A value of P<0.05 was considered significant."}, "MMP-8 catalytic domain": {"target": "T2, MMP-8 catalytic domain (Homo sapiens, UniProt P22894)", "T2 construct": "catalytic domain (^99Phe˜^262Gly); His-tag; enterokinase digestion-site; made in house; host or cells: Escherichia coli", "T2 sequence (P22894 99-262)": "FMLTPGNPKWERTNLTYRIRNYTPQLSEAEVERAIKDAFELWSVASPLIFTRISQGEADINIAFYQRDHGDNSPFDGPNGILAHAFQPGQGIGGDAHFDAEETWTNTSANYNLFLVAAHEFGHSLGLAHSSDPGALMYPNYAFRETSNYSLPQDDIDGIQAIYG", "assay": "Assay for inhibitory activities on MMPs (fluorogenic peptide substrate): MMP-8", "format": "biochemical", "settings": "substrate MOCAc-Pro-Leu-Gly-Leu-A2Pr(DNP)-Ala-Arg-NH2", "source_text": "In regard to MMP-8, catalytic domain (^99Phe˜^262Gly) was amplified with PCR using commercial available Human Bone Marrow cDNA. This was cloned in Escherichia. coli expression vector pTrc99AHE inserted with His-tag sequence and enterokinase digestion-site, induced and expressed by IPTG (Isopropyl-β-D-thiogalactopyranoside) and expressed in a insoluble fraction (Than F. Ho, M. Walid Qoronfleh, Robert C. Wahl, Trica A. Pulvino, Karen J. Vavra, Joe Falvo, Tracey M. Banks, Patricia G. Brake and Richard B. Ciccarelli: Gene expression, purification and characterization of recombinant human neutrophil collagenase. Gene 146, (1994) 297-301, Prepared by the a improved method of this material). Isolation of MMP-8 from insoluble fraction was carried out by dissolving in modifier (6M urea) by a usual method and purification with metal chelate chromatography. And then removing modifier (6M urea) with dialysis and refolding of the enzyme spontaneously gave activated MMP-8.\nas §1, §2, §3, §4, §5, §6, §7, §8"}, "MMP-13 catalytic domain": {"target": "T3, MMP-13 catalytic domain (Homo sapiens, UniProt P45452)", "T3 construct": "catalytic domain (^104Tyr˜^267Gly); His-tag; enterokinase digestion-site; made in house; host or cells: Escherichia coli", "assay": "Assay for inhibitory activities on MMPs (fluorogenic peptide substrate): MMP-13", "format": "biochemical", "settings": "substrate MOCAc-Pro-Leu-Gly-Leu-A2Pr(DNP)-Ala-Arg-NH2", "procedure": "In regard to MMP-13, mRNA was prepared from carcinoma cell SW1353 derived from human cartilage stimulate by IL-1, TNF and catalytic domain (^104Tyr˜^267Gly) was amplified with RT-PCR. This was cloned in Escherichia coli expression vector pTrc99AHE inserted with His-tag sequence and enterokinase digestion-site, induced and expressed by IPTG (Isopropyl-β-D-thiogalactopyranoside) and expressed in a insoluble fraction. Isolation of MMP-1.3 from a insoluble fraction was carried out by dissolving in modifier (6M urea) by a usual method and purification with metal chelate chromatography (Ni Chelateing Sepharose). And then removing modifier (6M urea) with dialyze and refolding of the enzyme spontaneously gave activated MMP-13.\nas §1, §2, §3, §4, §5, §6, §7, §8"}, "[2]": {"settings": "cigarette smoke exposure 7 to 8 weeks, means ± S.D., n = 7"}}}
{"smiles": "C[C@@H](NS(=O)(=O)c1ccc(C#Cc2ccc3ccccc3c2)s1)C(=O)O", "note": "[Compound B-6]", "values": [{"measurement": "IC50", "setting": "MMP-9", "result": 840, "unit": "nM"}, {"measurement": "effect on increase of dynamic compliance by cigarette smoke exposure (in words)", "setting": "[1]", "result": "tended to attenuate the increase"}, {"measurement": "effect on increase of inspiratory capacity by cigarette smoke exposure (in words)", "setting": "[1]", "result": "tended to attenuate the increase"}, {"measurement": "effect on increase of static lung compliance by cigarette smoke exposure (in words)", "setting": "[1]", "result": "significantly reduced the increase"}, {"measurement": "Inspiratory capacity", "setting": "[1]; [2]", "result": "21.76 ± 1.85", "unit": "mL/kg"}, {"measurement": "dynamic compliance", "setting": "[1]; [2]", "result": "0.96 ± 0.17", "unit": "ml/cmH2O/kg"}, {"measurement": "Static lung compliance", "setting": "[1]; cigarette smoke exposure 7 to 8 weeks, means ± S.D., n = 7, P < 0.05 vs. Cigarette smoke exposure", "result": "2.05 ± 0.25", "unit": "ml/cmH2O/kg"}, {"measurement": "IC50", "setting": "MMP-8 catalytic domain", "result": 2090, "unit": "nM"}, {"measurement": "IC50", "setting": "MMP-13 catalytic domain", "result": 840, "unit": "nM"}]}
